Common to all, as to assay: inhibition of tumour cell growth, NCI panel, 48 h
Assay [1] relates to M14.
The test system of assay [2] is SF-295.
The test system of assay [3] is 786-0.
The test system of assay [4] is LOX IMVI.
The test system of assay [5] is IGROV-1.
Assay [6] relates to HL-60.
Assay [7] deals with HCT-15.
Assay [8] concerns HOP-92.
Assay [9] concerns NCI-H460.
For assay [10], the system named is A498.
In assay [11] the test system is Malme-3M.
The test system of assay [12] is UO-31.
Assay [13] deals with HCC 2998.
In assay [14] the test system is HCT-116.
The subject of assay [15] is OVCAR-4.
Assay [16] relates to NCI-H23.
In assay [17] the test system is SF-539.
The test system of assay [18] is SR.

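Results reflect a 48-hour exposure of cells in 96-well plates to compound at five concentrations. GI50 = concentration required for 50% inhibition of growth.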 Activity calls are given as the source filed them. Rule as the data show it: active = GI50 up to about 1.1 µM and inactive = higher.

For `CN1C[C@@H]2CC(=O)CC[C@@H]2C[C@H]1C#N`, the GI50 in [1], in assay [2], in assay [3], in [4], in [5] and in assay [6] was > 100 µM (inactive) each time. Further, the GI50 was over 100 µM in assay [7]; > 100 µM (inactive) in assay [8]; > 100 µM (inactive) in [9]; > 100 µM (inactive) in assay [10]; > 100 µM (inactive) in assay [11]; > 100 µM (inactive) in assay [12]. The GI50 in assay [13], in assay [14] and in assay [15] was > 100 µM (inactive) throughout.

For the compound `C[C@]12Cc3cn[nH]c3C(=O)C1CC[C@@H]1C2CC[C@@]2(C)C1CC[C@@H]2O` (some centres not stated), the GI50 in [1], in [2], in assay [3], in assay [4], in assay [5] and in [6] was > 100 µM (inactive) throughout. Besides, the GI50 in [7] is over 100 µM; in assay [8], > 100 µM (inactive); in [16] it was > 100 µM (inactive); in assay [9], > 100 µM (inactive); in [10] it was > 100 µM (inactive); in assay [11] it was > 100 µM (inactive). Also, the GI50 in assay [17], in assay [12], in assay [14] and in [15] was > 100 µM (inactive) each time.

In the case of `COC(=O)/N=C(\NC(=O)OC)Nc1ccc(Oc2ccccc2)cc1NC=O`, the GI50 in assay [1] was 0.401 µM (active); in assay [2], 0.439 µM (active); in assay [3] it was 0.483 µM (active); in assay [4] it was 1.97 µM (inactive); in assay [5] it was 1.62 µM (inactive); in assay [6], 0.206 µM (active). Besides, the GI50 in [8] was 24.3 µM (inactive); in [16], 0.824 µM (active); in [10] it was 0.294 µM (active); in assay [11], 0.579 µM (active); in assay [17] it was 0.433 µM (active); in [12], 0.871 µM (active). Further, the GI50 in assay [13] was 0.968 µM (active); in [14] it was 0.49 µM (active); in [15] it was 0.891 µM (active).

On to `C=C1C2CCCC1C1(S(C)(=O)=O)CCCCC21O` (configuration not stated), for which the GI50 in assay [1] was > 100 µM (inactive); in assay [2], > 100 µM (inactive); in assay [3] it was > 100 µM (inactive); in assay [5] it was > 100 µM (inactive); in assay [7], over 100 µM; in assay [8], < 0.01 µM (active). The GI50 in assay [16], in [9], in [11], in assay [18], in assay [17] and in assay [12] was > 100 µM (inactive) each time. The GI50 in assay [13], in assay [14] and in assay [15] was > 100 µM (inactive) throughout.

For the compound `COC(=O)[C@@]12C=CC(=O)[C@H]3C[C@@H](C(C(C)C)C1)[C@]32OC` (some centres not stated), the GI50 is > 100 µM (inactive) in [1]; > 100 µM (inactive) in assay [2]; > 100 µM (inactive) in [3]; > 100 µM (inactive) in assay [5]; > 100 µM (inactive) in [6]; over 100 µM in assay [7]. Further, the GI50 in [8], in [16], in assay [9], in assay [10], in assay [11] and in assay [17] was > 100 µM (inactive) throughout. Besides, the GI50 in assay [13], in assay [14] and in [15] was > 100 µM (inactive) each time.

With `COC(=O)C(=Cc1cc(OC)ccc1OC)C(=O)OC`, the GI50 is 15.3 µM (inactive) in assay [1]; 28.2 µM (inactive) in assay [2]; 23.4 µM (inactive) in assay [3]; 18.2 µM (inactive) in assay [4]; 25.5 µM (inactive) in assay [5]; 21.8 µM (inactive) in assay [6]. Further, the GI50 in assay [7] is 25.2 µM; in assay [8], 19.2 µM (inactive); in assay [9], 30.8 µM (inactive); in assay [11] it was 26.9 µM (inactive); in [17], 24.7 µM (inactive); in assay [12] it was 23 µM (inactive). The GI50 is 19.1 µM (inactive) in assay [13] and 20.3 µM (inactive) in assay [15].

On to `CC1(C)SCc2nc3ncccc3n21`, for which the GI50 in assay [1], in [2], in assay [3], in assay [4], in assay [5] and in assay [6] was > 100 µM (inactive) each time. Moreover, the GI50 in [7] was over 100 µM; in assay [8], > 100 µM (inactive); in assay [16] it was > 100 µM (inactive); in [9], > 100 µM (inactive); in assay [10], > 100 µM (inactive); in assay [11], > 100 µM (inactive). Besides, the GI50 in [17], in [12], in assay [13] and in [15] was > 100 µM (inactive) in each case.

On to `Cc1ccc(C(=O)NC2CCCCC2)cc1/N=N/N(C)C`, for which the GI50 is > 100 µM (inactive) in assay [1]; > 100 µM (inactive) in [2]; > 100 µM (inactive) in assay [3]; > 100 µM (inactive) in [4]; > 100 µM (inactive) in assay [5]; over 100 µM in assay [7]. Also, the GI50 in assay [8], in [16], in assay [9], in [17], in [12] and in [13] was > 100 µM (inactive) each time. In addition, the GI50 in [14] and in assay [15] was > 100 µM (inactive) throughout.

Take `CC(N)C(=O)OCN1C(=O)C2C3C=CC(C2C1=O)C1C2C(=O)N(COC(=O)C(C)N)C(=O)C2C31` (configuration not stated): the GI50 is 20.9 µM (inactive) in [1]; > 100 µM (inactive) in assay [2]; 20.8 µM (inactive) in assay [3]; 18.5 µM (inactive) in assay [4]; 33.8 µM (inactive) in assay [5]; 29.8 µM (inactive) in assay [6]. In addition, the GI50 was 19.9 µM in [7]; 57.5 µM (inactive) in assay [8]; 22.1 µM (inactive) in assay [16]; 17.6 µM (inactive) in assay [9]; 5.57 µM (inactive) in [18]; 22.9 µM (inactive) in assay [17]. The GI50 was 56.4 µM (inactive) in assay [12], 43.1 µM (inactive) in [13], 24.2 µM (inactive) in assay [14] and 20.8 µM (inactive) in assay [15].

Regarding `O=C1CCC2(c3ccccc3)Nc3ccccc3N12` (configuration not stated), the GI50 in [1], in assay [2], in assay [3], in [4], in assay [5] and in assay [6] was > 100 µM (inactive) in each case. In addition, the GI50 in assay [7] is over 100 µM; in [8], > 100 µM (inactive); in assay [16] it was > 100 µM (inactive); in assay [9] it was > 100 µM (inactive); in assay [10], > 100 µM (inactive); in assay [11], > 100 µM (inactive). For the same compound, the GI50 in [17], in assay [12], in assay [13] and in [15] was > 100 µM (inactive) each time.

Source of the values: ChEMBL document CHEMBL1201862, “PubChem BioAssay data set” (2004).
